T1: ADAM10 (Mus musculus, UniProt O35598)
T1 construct: endogenous in cells; host or cells: MTE 4-14 (transformed murine thymus cells) transfected with Trop-2
T1 sequence (O35598 215-749): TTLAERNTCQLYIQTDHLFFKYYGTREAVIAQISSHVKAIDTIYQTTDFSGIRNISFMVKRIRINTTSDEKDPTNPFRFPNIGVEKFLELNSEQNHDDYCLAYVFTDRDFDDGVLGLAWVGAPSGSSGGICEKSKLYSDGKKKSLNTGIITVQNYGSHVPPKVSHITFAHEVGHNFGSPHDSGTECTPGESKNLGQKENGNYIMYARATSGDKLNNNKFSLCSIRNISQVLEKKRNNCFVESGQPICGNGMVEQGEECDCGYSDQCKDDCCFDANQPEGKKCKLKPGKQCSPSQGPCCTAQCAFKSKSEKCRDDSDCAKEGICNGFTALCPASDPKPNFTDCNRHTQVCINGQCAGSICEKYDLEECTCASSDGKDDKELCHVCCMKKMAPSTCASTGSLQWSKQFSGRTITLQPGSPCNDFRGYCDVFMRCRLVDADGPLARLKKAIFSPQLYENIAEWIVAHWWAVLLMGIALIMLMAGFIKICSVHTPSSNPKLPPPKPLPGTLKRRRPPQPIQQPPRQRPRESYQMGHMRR

T2: Trop-2 (wild-type human Trop-2, NCBI accession number NP_002344.2)
T2 chain: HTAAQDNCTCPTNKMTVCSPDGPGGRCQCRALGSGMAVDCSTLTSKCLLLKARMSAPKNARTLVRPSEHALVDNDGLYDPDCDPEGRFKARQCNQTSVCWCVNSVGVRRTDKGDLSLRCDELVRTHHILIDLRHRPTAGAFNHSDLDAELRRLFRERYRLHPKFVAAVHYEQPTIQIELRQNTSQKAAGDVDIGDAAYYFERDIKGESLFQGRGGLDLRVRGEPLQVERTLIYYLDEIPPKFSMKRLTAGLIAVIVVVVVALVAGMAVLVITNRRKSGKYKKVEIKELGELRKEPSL

B1: ADAM10 siRNA: siRNA targeting murine ADAM10 (NM_007399.3, nt 292-309), SEQ ID NO: 57/58, expressed from pSUPER (nucleic acid, listed as Mus musculus)
chain 1: GATCCCCAGACATTATGAAGGATTATTTCAAGAGAATAATCCTTCATAATGTCTTTTTTGGAAA
chain 2: AGCTTTTCCAAAAAAGACATTATGAAGGATTATTCTCTTGAAATAATCCTTCATAATGTCTGGG
B2: siRNAs targeting MMP9: control siRNA targeting murine MMP9 (NM_013599, nt 1780-1798), SEQ ID NO: 59/60 (nucleic acid, listed as Mus musculus)
chain 1: GATCCCCCCGCAGACCAAGAGGGTTTTTCAAGAGAAAACCCTCTTGGTCTGCGGTTTTTGGAAA
chain 2: AGCTTTTCCAAAAACCGCAGACCAAGAGGGTTTTCTCTTGAAAAACCCTCTTGGTCTGCGGGGG
B3: murine ADAM10 (endogenous in MTE 4-14 cells) (protein)
chain: T1 sequence (O35598 215-749)

Tests used:
ADAM10 = molecular target: T1, ADAM10; test: Western blot of Trop-2 processing in MTE 4-14/Trop-2 transfectants upon ADAM10 inhibition; format: cell-based, murine; conditions: for effect on Trop-2 processing: MTE 4-14/Trop-2 transfectants, WB; for minimum concentration found to be effective in inhibiting Trop-2 cleavage: concentration used, GM6001 24 hours, G1254023X two doses every 24 hours for 48 hours; for concentration found effective (up to): inhibition of Trop-2 cleavage
Experimental: ADAM 10 activity was inhibited in the MTE 4-14/Trop-2 transfectants by treatment with chemical inhibitors or mRNA silencing, and the effect on Trop-2 processing and on Trop-2-dependent cell growth was evaluated.
A. WB analysis following treatment with the broad-spectrum metalloprotease inhibitor GM6001 or with the specific ADAM10 inhibitor G1254023X or ADAM10 siRNA silencing, as indicated. […] T2-p: processed Trop-2; na: native form; pr: processed form.
Western blotting was performed as described (El Sewedy, Fomaro et al. 1998). Tumors from experimental animals were rapidly frozen upon surgical removal and stored at −80° C. Frozen samples were quickly thawed and homogenized with a Dounce homogenizer. Cleared homogenates of tumors and cultured cell lysates were analyzed by SDS-PAGE and transferred to nitrocellulose filters. Filters were hybridized with anti-human Trop-2 (affinity-purified polyclonal rabbit antiserum) or anti-ADAM10 antibodies.
Cells were treated with ADAM10 inhibitors for 24 hours at the minimum concentration found to be effective in inhibiting Trop-2 cleavage, then assayed as indicated. The GM6001 metalloprotease family inhibitor (Calbiochem) was dissolved in DMSO and used at 6.5-13 μM for 24 hours; up to 50 μM GM6001 were found effective. The G1254023X selective ADAM10 inhibitor, dissolved in DMSO, was kindly provided by Dr. A. Ludwig. Cells received two doses (10 μM) every 24 hours for 48 hours; up to 20 μM G1254023X were found effective. Control cells received vehicle alone.
(§1) Complementary strategies were utilized for siRNA design. Briefly, Tuschl′ criteria were applied, i.e. position in the mRNA, GC content, base composition and flanking sequences (Elbashir, Harborth et al. 2001). Invitrogen (maidesigner.invitrogen.com/maiexpress/) provides a proprietary algorithm that performs a statistical analysis of the target sequence, based on sequence composition, nucleotide content and thermodynamic properties, and compares candidates with validated siRNA sequences. The Whitehead Institute web site (jura.wi.mit.edu/bioc/siRNAext/) combines Tuschl′ criteria with predictions of binding energies for both sense and antisense siRNAs and with BLAST filtering of cross-hybridizing sequences. The Sonnhammer procedure (sonnhammer.cgb.ki.se/siSearch/) performs data mining (siSearch) on validated siRNA databanks, using motif rules and energy parameters. siRNA were synthesized that were identified by more than one method or considered optimal by any of the procedures above. Annealed oligos were subcloned into the pSUPER vector, kindly provided by Dr. R. Bernard (Brummelkamp, Bernards et al. 2002), under the control of the RNA polymerase III H1 gene promoter. siRNA expression constructs were transiently transfected MTE 4-14 transfectants, and cell growth was measured. siRNA-targeted transcript levels were quantified by real-time PCR. Negative control siRNAs directed towards irrelevant targets were used; these were chosen after extensive testing for lack of off-target influence on cell growth.

[1] = system: metastatic triple-negative breast cancer (TNBC); conditions: patients with metastatic TNBC; cited from earlier work
MTE 4-14 cells = test: In vitro growth of MTE 4-14 transfectants upon siRNA-mediated inhibition; format: cell-based, murine
Experimental: C. In vitro growth curves of MTE 4-14 cells transfected with the empty vector, wtTrop-2 or R87A-T88A Trop-2 upon ADAM10 (upper graphs, black,), MMP9 (lower graphs, black,) or control (human CD133, gray), siRNA-mediated inhibition. Bars: SEM. The p value for the only significant difference (ANOVA analysis) is indicated. Stars indicate post-hoc Bonferroni's t test p values (*≤0.05, **≤0.001).
Cell transfectants were seeded at 1.5−3.0×10^3 cells/well in 96-well plates (five replica wells per data point). Cell numbers were quantified by staining with crystal violet. Cell numbers were normalized against a standard reference curve of two-fold serially diluted cell samples.
as §1, with “Negative control siRNAs directed towards irrelevant targets were used; these were chosen after extensive testing for lack of off-target influence on cell growth.” left out

[2] = molecular target: T2, Trop-2 (wild-type human Trop-2, NCBI …)

Row | Molecule | effect on Trop-2 processing (ADAM10) | minimum concentration found to be effective in inhibiting Trop-2 cleavage (ADAM10) | concentration found effective (up to) (ADAM10) | other results
1 | CNC(=O)[C@@H](NC(=O)[C@H](CCCc1ccccc1)[C@H](C)N(O)C=O)C(C)(C)C [G1254023X] | reduction in Trop-2 processing | 10 µM | up to 20 μM | 
2 | CNC(=O)[C@H](Cc1c[nH]c2ccccc12)NC(=O)[C@@H](CC(=O)NO)CC(C)C [GM6001] | reduction in Trop-2 processing | 6.5 to 13 µM | up to 50 μM | 
3 | Sacituzumab govitecan-hziy |  |  |  | efficacy in patients [1]: effective
4 | B1 | inhibited Trop-2 processing |  |  | effect on in vitro growth of R87A-T88A or empty vector transfectants (MTE 4-14 cells; MTE 4-14 R87A-T88A or empty vector transfectants): no effect; effect on in vitro growth of wtTrop-2 transfectants (MTE 4-14 cells; MTE 4-14 wtTrop-2 transfectants): overrides Trop-2 dependent growth stimulus
5 | B2 |  |  |  | effect on cell proliferation (MTE 4-14 cells; MTE 4-14 transfectants, siRNA targeting MMP9): no effect on cell proliferation
6 | B3 |  |  |  | Trop-2 processing (Western blot) after ADAM10 gene expression silencing by specific siRNAs [2]: Trop-2 processing was virtually abolished following ADAM10 silencing

— US20240043557A1, “A PLATFORM TO OBTAIN MONOCLONAL ANTIBODIES DIRECTED AGAINST PROCESSED TUMOR-SPECIFIC ANTIGENS” (Mediterranea Theranostic srl, priority 2020, published 2024)
